According to patent publication US20080306155A1, “METHOD FOR TREATING RENAL DISEASE” (priority 2004, published 2008):
Where “and” joins values, the source holds several entries; their conditions need not be identical. Equal values may be shown once.

What was measured:
Format in all cases: cell-based, rat
[1] = system: isolated glomeruli; assay: Albumin permeability (Palb) of isolated glomeruli; conditions: 10 ng/ml
Procedure: Measurement of Albumin Permeability (Palb): Glomeruli were isolated using the sieving method as previously described in a medium containing 5 g/dl of bovine serum albumin (BSA). See, Sharma R, et al, Kidney Intl. 58:131-136 (2000); and Savin V, et al. J. Am. Soc. Nephrol. 3:1260-1269 (1992). In each experimental condition, Palb was determined from the change in glomerular volume (•V) after exchange of the bath with medium containing 1 g/dl albumin. Palb was calculated as 1−(•Vexperimental/•Vcontrol) where glomeruli from SD rats fed a normal-salt diet were used to provide the control value for each experiment. To verify that lack of •Vs in Dahl S rats were related to changes in Palb rather than to changes in mechanical properties of glomeruli, additional studies were performed in which the glomeruli were exposed to a 5% solution of high molecular weight dextran.
In other experiments, we examined the interaction of TGF-• and 20-HETE on Palb in glomeruli isolated from SD rats and Dahl S rats fed either a LS diet or a HS diet for 4 days. Glomeruli were preincubated with vehicle or TGF-•1 (10 ng/ml) for 15 minutes at 37° C. and changes in Palb were determined. Glomeruli were also pretreated with 5, 14-20-HEDE (WIT003) (1 μmol/L; Taisho Pharmaceutical; Tokyo, Japan) (Alonso-Galicia et al., supra; and Yu et al., supra), for 15 minutes at 37° C. and the Palb response to TGF-• 1 (10 ng/ml) was redetermined. A minimum of 5 glomeruli from each rat were studied, and the experiments were performed using •5 rats per treatment group.

[2] = system: glomerular production of 20-HETE; assay: LC/MS measurement of glomerular 20-HETE production
Procedure: Liquid Chromatography/Mass Spectroscopy measurement of glomerular 20-HETE production: Glomeruli (approximately 20 μg protein) were incubated in a 0.1 mol/L KPO4 buffer containing 1 mmol/L NADPH for 30 minutes at 37° C. in the presence and absence of TGF-•1 (10 ng/ml). Incubations were stopped by acidification with formic acid, homogenized, and the homogenate extracted with chloroform:methanol (2:1) after addition of 10 ng of internal standard, 14,15-epoxyeicosa-5(Z)-enoic-methyl sulfonylimide (EEZE). Samples were reconstituted in 50% acetonitrile, cleaned up using on online, reverse-phase high performance liquid chromatography (HPLC) trapping column, and then the HETEs and epoxyeicosatrienoic acids (EETs) in the samples were separated using an isocratic step gradient on an 18C—RP 2×250 mm microbore HPLC (BetaBasic18 150×21 3•m; Thermo Hypersil-Keystone; Bellefonte, Pa.) using a mobile phase consisting of acetonitrile:water:acetic acid (57:43:0.1) for 20 minutes to resolve the HETEs followed by acetonitrile:water:acetic acid (63:37:0.1) for 15 minutes to resolve the EETs. Samples were ionized using negative ion electrospray and the peaks eluting with a mass/charge ratio (m/z) of 319 (HETEs and EETs) or 323 (internal standard) were isolated and monitored in the selective ion mass spectroscopy (MS) mode using an Agilent LSD ion trap mass spectrometer (Agilent Technologies 1100; Santa Clara Calif.). The ratio of ion abundances in the peaks of interest (HETEs and EETs, m/z 319) versus that corresponding to the closely eluting internal standard (EEZE, m/z 323) were determined and compared with a standard curve generated over a range from 0.1 ng to 2 ng of 20-HETE and EETs with each batch of samples.

[3] = system: isolated glomeruli; assay: Albumin permeability (Palb) of isolated glomeruli; conditions: glomeruli from Dahl S rats fed HS diet for 7 days; 10 ng/ml
[4] = glomeruli pretreated with TGF-•1 10 ng/ml

TGF-•1: transforming growth factor-beta 1, applied to isolated glomeruli at 10 ng/ml
Palb after TGF-•1 ([1]; glomeruli from Dahl S rats fed HS diet for 4 days): 0.87±0.02
Palb after TGF-•1 ([1]; glomeruli from Dahl S rats fed a LS diet): 0.75±0.01
Palb after TGF-•1 ([1]; glomeruli from SD rats, 15 minutes, 37° C.): 0.60±0.02 and 0.56±0.02
glomerular production of 20-HETE ([2]; SD glomeruli with TGF-•1 10 ng/ml): 3.4±0.5 ·g/30 minutes/mg protein
formation of 15-, 12- or 5-HETE or EETs [2, 4]: without affecting
reduction of formation of 20-HETE [2, 4]: 97%
effect on Palb [3]: no effect
